Activity calls are given as the source filed them. How the calls were made is not given here.

What is called IC50 is the concentration needed to halve the response being measured.

This experiment has as its target methionyl-tRNA synthetase (Trypanosoma brucei brucei). The experiment can be described thus: T. brucei MetRS inhibitors, late-stage follow-up, biochemical, luminescence, dose response, round 1 (AID 743153). The following applies: recombinant T. brucei MetRS, luminescence (ATP depletion).
As for `CNC(=S)N(CCc1ccccc1)C1CC(=O)N(c2ccc(Br)cc2)C1=O` (stereo unspecified), the IC50 was 0.192 µM. Take `COc1ccccc1NC(=O)CSc1nnc2c(n1)[nH]c1ccc(C)cc12`: the IC50 entry was “inactive”.

For `O=C(Cn1cc(C(=O)C(=O)N2CCOCC2)c2ccccc21)NCc1ccccc1`, the IC50 is > 119 µM (inactive). As for `CCN(CC)C(=O)C(=O)c1cn(CC(=O)Nc2cccc(OC)c2)c2ccccc12`, the IC50 was 1.84 µM. As to `O=C(Nc1ccc(F)c(Cl)c1)C1CC(=O)n2c(nc3ccccc32)N1` (stereo unspecified), the IC50 is 1.18 µM. Regarding `CCN(C(=O)Cn1cc(C(=O)C(=O)N2CCOCC2)c2ccccc21)c1ccccc1`, the IC50 was > 119 µM (inactive). On to `CCN(CC)C(=O)C(=O)c1cn(CC(=O)Nc2cccc(C(F)(F)F)c2)c2ccccc12`, for which the IC50 is 0.11 µM. On to `CCN(CC)C(=O)C(=O)c1cn(CC(=O)Nc2ccccc2OC)c2ccccc12`, for which the IC50 is > 119 µM (inactive). `O=C(NCCc1nc2ccccc2[nH]1)c1ccc(Cl)cc1Cl`: the IC50 was 0.905 µM. On to `CC(C)c1nc2ccc(C(=O)N(C)CCc3nc4ccc(F)cc4[nH]3)cc2o1`, for which the IC50 was > 119 µM (inactive). Consider `O=C(Cn1cc(C(=O)C(=O)N2CCOCC2)c2ccccc21)NCC1CCCO1` (stereo unspecified), for which the IC50 is > 119 µM (inactive). In the case of `Cc1cccc2[nH]c(CCN(C)C(=O)c3cccc(C4CCNC4)c3)nc12` (stereo unspecified), the IC50 was > 119 µM (inactive). As for `CCc1ccc2[nH]c3nc(SCC(=O)NCc4cccc(OC)c4)nnc3c2c1`, the figure is > 39.5 µM (inactive); as for `Cc1ccc(C(=O)NCCc2nc3ccccc3[nH]2)cc1C`, > 13.2 µM (inactive); as for `Cc1ccc(CNC(=O)CSc2nnc3c(n2)[nH]c2ccc(C)cc23)cc1`, “inactive”.

With `Cc1cccc(C(=O)NCCc2nc3ccccc3n2CCOc2ccccc2)c1`, the IC50 is > 39.5 µM (inactive). In the case of `O=C(NCCc1nc2ccccc2[nH]1)c1ccc(Cl)cc1` it was 4.86 µM. In the case of `Cc1ccc2[nH]c3nc(SCC(=O)Nc4ccc(C(F)(F)F)cc4)nnc3c2c1` it was > 119 µM (inactive). As for `CC(=O)N(CCc1ccccc1)C1CC(=O)N(c2ccc(Cl)cc2)C1=O` (stereo unspecified), the figure is > 39.5 µM (inactive); as for `CCc1ccc2c(c1)c1nnc(SCC(=O)Nc3ccc4c(c3)OCO4)nc1n2C`, > 119 µM (inactive); as for `CCCCn1c(CCNC(=O)c2ccc(F)cc2)nc2ccccc21`, > 39.5 µM (inactive). For the compound `CC(=O)c1cn(CC(=O)Nc2cccc(C(F)(F)F)c2)c2ccccc12`, the IC50 is 6.2 µM. Regarding `CCN(CC)C(=O)C(=O)c1cn(CC(=O)N(CC)c2ccccc2)c2ccccc12`, the IC50 was > 39.5 µM (inactive). Consider `COc1ccc(CCN(C(=S)Nc2ccccc2)C2CC(=O)N(c3ccc(Cl)cc3)C2=O)cc1` (stereo unspecified), for which the IC50 is 0.321 µM. Regarding `COCCc1nc2ccc(C(=O)NCCc3nc4ccc(OC)cc4[nH]3)cc2o1`, the IC50 was > 39.5 µM (inactive). In the case of `O=C(Cn1cc(C(=O)C2CC2)c2ccccc21)Nc1cccc(C(F)(F)F)c1` it was “inactive”. Take `O=C(CSc1nnc2c(n1)[nH]c1ccc(Br)cc12)NCc1ccccc1`: the IC50 was 0.626 µM. With `CCC(=O)c1cn(CC(=O)Nc2cccc(C(F)(F)F)c2)c2ccccc12`, the IC50 is > 39.5 µM (inactive).

In the case of `Cn1c(CCNC(=O)c2ccc(Cl)cc2)nc2ccccc21`, the IC50 is > 39.5 µM (inactive). In the case of `COc1cccc(NC(=O)C2CC(=O)n3c(nc4ccccc43)N2)c1` (stereo unspecified), the IC50 entry was “inactive”. As for `Cc1ccc(C(=O)NCCc2nc3ccccc3[nH]2)cc1[N+](=O)[O-]`, the figure is 2.37 µM; as for `CCN(CCc1nc2ccc(C)cc2[nH]1)C(=O)c1ccc2ncccc2c1`, > 119 µM (inactive); as for `CC1Cc2ccccc2N1C(=O)Cn1cc(C(=O)C(=O)N2CCOCC2)c2ccccc21` (stereo unspecified), > 119 µM (inactive). For the compound `O=C(Cn1cc(C(=O)c2ccccc2)c2ccccc21)Nc1cccc(C(F)(F)F)c1`, the IC50 is 6.8 µM. As for `Cc1cc2cc(C(=O)N3CCCC(c4nc5ccccc5[nH]4)C3)ccc2o1` (stereo unspecified), the IC50 is > 39.5 µM (inactive). In the case of `O=C(Cn1cc(C(=O)c2ccco2)c2ccccc21)Nc1cccc(C(F)(F)F)c1` it was 1.39 µM; in that of `O=C(C(=O)N1CCOCC1)c1cn(CC(=O)N2CCCc3ccccc32)c2ccccc12`, > 13.2 µM (inactive).

Consider `Cc1cccc(NC(=O)C2CC(=O)n3c(nc4ccccc43)N2)c1` (stereo unspecified), for which the IC50 is > 39.5 µM (inactive).

`O=C1CC(NCCc2ccccc2)C(=O)N1c1ccc(Br)cc1` (stereo unspecified): the IC50 is > 119 µM (inactive). Take `COc1ccc(CCN(C(=O)c2cccc(F)c2)C2CC(=O)N(c3ccc(Br)cc3)C2=O)cc1` (stereo unspecified): the IC50 was > 119 µM (inactive). As to `O=C(NCCc1nc2ccccc2[nH]1)c1c(F)cccc1F`, the IC50 was > 119 µM (inactive). `O=C(CSC1CC(=O)N(c2cccc(Cl)c2)C1=O)Nc1ccc(Br)cc1` (stereo unspecified): the IC50 result was “inactive”. As for `COc1ccccc1NC(=O)Cn1cc(C(=O)C(=O)N2CCOCC2)c2ccccc21`, the figure is > 119 µM (inactive); as for `COc1ccc(NC(=O)CSc2nnc3c4cc(C)ccc4n(C)c3n2)cc1`, > 119 µM (inactive); as for `O=C(NCCc1nc2ccccc2[nH]1)c1ccc(Cl)c(Cl)c1`, 0.609 µM.

As for `O=C(Cn1cc(C(=O)COc2ccccc2)c2ccccc21)Nc1cccc(C(F)(F)F)c1`, the IC50 was > 39.5 µM (inactive).

As for `Cc1cccc2[nH]c(C3CCCN(C(=O)c4cccc5cccnc45)C3)nc12` (stereo unspecified), the IC50 was > 39.5 µM (inactive). With `CC(=O)N(CCc1ccccc1)C1CC(=O)N(c2ccc(Br)cc2)C1=O` (stereo unspecified), the IC50 is > 39.5 µM (inactive).

On to `COc1ccc(NC(=O)C2CC(=O)n3c(nc4ccccc43)N2)cc1` (stereo unspecified), for which the IC50 was > 119 µM (inactive). Turning to `CCN(CC)C(=O)C(=O)c1cn(CC(=O)N2CCCc3ccccc32)c2ccccc12`, the IC50 was > 119 µM (inactive). As to `O=C(Cn1cc(C(=O)C(=O)N2CCCC2)c2ccccc21)Nc1ccccc1`, the IC50 was > 119 µM (inactive).

These data come from PubChem BioAssay AID743153 (The Scripps Research Institute Molecular Screening Center, 2013).
